How the values were obtained:
Assay in all cases: KINOMEscan competition binding
Conditions in all cases: compound 1.0 µM
[1] = biological target: OXSR1 (human) (UniProt O95747)
[2] = biological target: DYRK1A (human) (UniProt Q13627)
[3] = biological target: ROCK1 (human) (UniProt Q13464)
[4] = biological target: BRSK1 (human) (UniProt Q8TDC3)
[5] = biological target: MAP3K10 (human) (UniProt Q02779)
[6] = biological target: TEC (human) (UniProt P42680)
[7] = biological target: NLK (human) (UniProt Q9UBE8)
[8] = biological target: INSRR (human) (UniProt P14616)
[9] = biological target: TAOK1 (human) (UniProt Q7L7X3)
[10] = biological target: NUAK2 (human) (UniProt Q9H093)
[11] = biological target: RIOK3 (human) (UniProt O14730)
[12] = biological target: PAK7 (human) (UniProt Q9P286)
[13] = biological target: HIPK3 (human) (UniProt Q9H422)
[14] = biological target: EPHB2 (human) (UniProt P29323)
[15] = biological target: CSF1R (human) (UniProt P07333)
[16] = biological target: NUAK1 (human) (UniProt O60285)
[17] = biological target: MAP4K5 (human) (UniProt Q9Y4K4)
[18] = biological target: CDK11B (human) (UniProt P21127)
[19] = biological target: SYK (human) (UniProt P43405)
[20] = biological target: CHEK1 (human) (UniProt O14757)
[21] = biological target: STK36 (human) (UniProt Q9NRP7)
[22] = biological target: TGFBR1 (human) (UniProt P36897)
[23] = system: EGFR (human), P00533 [L858R]
[24] = biological target: CAMK4 (human) (UniProt Q16566)
[25] = biological target: DDR1 (human) (UniProt Q08345)
[26] = biological target: RPS6KA2 KD2 (human) (UniProt Q15349)
[27] = biological target: ADCK4 (human) (UniProt Q96D53)
[28] = biological target: AURKA (human) (UniProt O14965)
[29] = biological target: PIM1 (human) (UniProt P11309)
[30] = biological target: PRKCD (human) (UniProt Q05655)
[31] = biological target: BRSK2 (human) (UniProt Q8IWQ3)
[32] = biological target: CDK15 (human) (UniProt Q96Q40)
[33] = biological target: MAPK9 (human) (UniProt P45984)
[34] = biological target: MARK3 (human) (UniProt P27448)
[35] = biological target: IRAK1 (human) (UniProt P51617)
[36] = biological target: MAP3K7 (human) (UniProt O43318)
[37] = biological target: MARK1 (human) (UniProt Q9P0L2)
[38] = biological target: STK38L (human) (UniProt Q9Y2H1)
[39] = system: FLT3 (human), P36888 [N841I]
[40] = biological target: RPS6KB1 (human) (UniProt P23443)
[41] = system: PIK3CA (human), P42336 [C420R]
[42] = biological target: JAK1 JH2 pseudokinase (human) (UniProt P23458)
[43] = biological target: DAPK1 (human) (UniProt P53355)

Chain of EPHB2 (human) (P29323 whole entry, looked up): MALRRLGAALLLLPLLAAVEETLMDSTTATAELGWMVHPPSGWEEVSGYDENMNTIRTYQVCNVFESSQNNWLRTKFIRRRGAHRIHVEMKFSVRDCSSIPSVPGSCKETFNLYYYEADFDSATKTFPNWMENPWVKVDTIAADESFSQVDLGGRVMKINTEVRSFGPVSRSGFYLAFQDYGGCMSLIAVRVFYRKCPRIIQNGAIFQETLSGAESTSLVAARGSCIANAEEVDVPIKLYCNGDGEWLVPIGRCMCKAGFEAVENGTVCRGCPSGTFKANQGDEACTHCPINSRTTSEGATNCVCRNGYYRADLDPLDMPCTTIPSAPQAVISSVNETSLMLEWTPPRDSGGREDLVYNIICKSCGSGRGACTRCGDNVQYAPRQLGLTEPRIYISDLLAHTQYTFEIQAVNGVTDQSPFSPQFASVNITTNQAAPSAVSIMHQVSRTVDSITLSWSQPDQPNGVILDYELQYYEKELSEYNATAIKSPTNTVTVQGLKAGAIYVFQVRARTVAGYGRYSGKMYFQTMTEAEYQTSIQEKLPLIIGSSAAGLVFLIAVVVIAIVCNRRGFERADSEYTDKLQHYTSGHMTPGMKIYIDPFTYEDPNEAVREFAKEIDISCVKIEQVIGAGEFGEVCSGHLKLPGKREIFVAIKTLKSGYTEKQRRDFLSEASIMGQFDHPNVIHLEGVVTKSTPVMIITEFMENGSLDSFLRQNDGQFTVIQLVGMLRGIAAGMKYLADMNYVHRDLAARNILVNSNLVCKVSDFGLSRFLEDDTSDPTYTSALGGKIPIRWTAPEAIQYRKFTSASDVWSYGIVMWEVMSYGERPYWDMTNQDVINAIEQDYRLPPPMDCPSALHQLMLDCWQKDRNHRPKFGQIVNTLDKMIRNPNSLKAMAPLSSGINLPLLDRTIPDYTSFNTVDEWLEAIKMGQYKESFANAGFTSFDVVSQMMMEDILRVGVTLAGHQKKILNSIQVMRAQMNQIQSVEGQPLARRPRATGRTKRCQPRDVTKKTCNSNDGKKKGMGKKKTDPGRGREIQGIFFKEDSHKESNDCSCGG
Chain of CDK11B (human) (P21127 whole entry, looked up): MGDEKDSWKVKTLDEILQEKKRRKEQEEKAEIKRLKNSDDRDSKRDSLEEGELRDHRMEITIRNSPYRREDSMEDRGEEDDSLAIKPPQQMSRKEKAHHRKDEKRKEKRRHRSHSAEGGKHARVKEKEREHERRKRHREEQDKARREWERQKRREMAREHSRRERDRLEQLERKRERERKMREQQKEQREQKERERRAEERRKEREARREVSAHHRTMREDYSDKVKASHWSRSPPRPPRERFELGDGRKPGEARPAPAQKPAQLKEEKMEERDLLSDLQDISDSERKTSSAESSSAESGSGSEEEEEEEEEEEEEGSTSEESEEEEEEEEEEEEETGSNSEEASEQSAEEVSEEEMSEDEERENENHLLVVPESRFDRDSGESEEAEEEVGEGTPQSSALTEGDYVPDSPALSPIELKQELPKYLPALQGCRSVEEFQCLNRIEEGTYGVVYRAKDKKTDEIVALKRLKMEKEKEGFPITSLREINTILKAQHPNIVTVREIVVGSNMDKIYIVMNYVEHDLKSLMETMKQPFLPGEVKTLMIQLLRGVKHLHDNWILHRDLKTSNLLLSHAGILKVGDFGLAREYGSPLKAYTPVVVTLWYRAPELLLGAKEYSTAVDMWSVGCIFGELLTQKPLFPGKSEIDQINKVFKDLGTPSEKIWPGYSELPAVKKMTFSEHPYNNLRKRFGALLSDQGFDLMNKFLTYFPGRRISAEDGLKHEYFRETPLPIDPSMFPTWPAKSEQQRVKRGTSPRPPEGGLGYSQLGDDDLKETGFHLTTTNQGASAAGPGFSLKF
Chain of BRSK1 (human) (Q8TDC3 whole entry, looked up): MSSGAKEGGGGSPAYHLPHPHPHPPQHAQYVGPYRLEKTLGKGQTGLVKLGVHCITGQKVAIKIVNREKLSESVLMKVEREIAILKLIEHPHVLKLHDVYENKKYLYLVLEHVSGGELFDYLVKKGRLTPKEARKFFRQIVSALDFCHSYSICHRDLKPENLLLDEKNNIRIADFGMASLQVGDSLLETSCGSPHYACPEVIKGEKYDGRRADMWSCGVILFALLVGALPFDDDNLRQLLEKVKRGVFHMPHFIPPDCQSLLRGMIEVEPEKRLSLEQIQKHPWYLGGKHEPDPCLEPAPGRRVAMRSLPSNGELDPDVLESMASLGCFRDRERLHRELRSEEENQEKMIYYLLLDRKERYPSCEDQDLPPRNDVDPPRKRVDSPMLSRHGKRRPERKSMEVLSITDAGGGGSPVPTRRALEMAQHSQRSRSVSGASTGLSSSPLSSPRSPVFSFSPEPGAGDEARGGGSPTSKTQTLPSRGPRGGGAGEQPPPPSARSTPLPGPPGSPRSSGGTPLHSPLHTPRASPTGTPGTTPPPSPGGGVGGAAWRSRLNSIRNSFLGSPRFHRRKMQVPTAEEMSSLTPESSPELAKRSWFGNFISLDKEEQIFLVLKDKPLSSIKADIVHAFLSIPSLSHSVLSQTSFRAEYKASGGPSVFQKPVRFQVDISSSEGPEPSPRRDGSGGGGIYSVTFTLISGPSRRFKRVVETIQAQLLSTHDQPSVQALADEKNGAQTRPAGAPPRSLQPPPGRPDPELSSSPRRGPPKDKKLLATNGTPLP
Chain of BRSK2 (human) (Q8IWQ3 whole entry, looked up): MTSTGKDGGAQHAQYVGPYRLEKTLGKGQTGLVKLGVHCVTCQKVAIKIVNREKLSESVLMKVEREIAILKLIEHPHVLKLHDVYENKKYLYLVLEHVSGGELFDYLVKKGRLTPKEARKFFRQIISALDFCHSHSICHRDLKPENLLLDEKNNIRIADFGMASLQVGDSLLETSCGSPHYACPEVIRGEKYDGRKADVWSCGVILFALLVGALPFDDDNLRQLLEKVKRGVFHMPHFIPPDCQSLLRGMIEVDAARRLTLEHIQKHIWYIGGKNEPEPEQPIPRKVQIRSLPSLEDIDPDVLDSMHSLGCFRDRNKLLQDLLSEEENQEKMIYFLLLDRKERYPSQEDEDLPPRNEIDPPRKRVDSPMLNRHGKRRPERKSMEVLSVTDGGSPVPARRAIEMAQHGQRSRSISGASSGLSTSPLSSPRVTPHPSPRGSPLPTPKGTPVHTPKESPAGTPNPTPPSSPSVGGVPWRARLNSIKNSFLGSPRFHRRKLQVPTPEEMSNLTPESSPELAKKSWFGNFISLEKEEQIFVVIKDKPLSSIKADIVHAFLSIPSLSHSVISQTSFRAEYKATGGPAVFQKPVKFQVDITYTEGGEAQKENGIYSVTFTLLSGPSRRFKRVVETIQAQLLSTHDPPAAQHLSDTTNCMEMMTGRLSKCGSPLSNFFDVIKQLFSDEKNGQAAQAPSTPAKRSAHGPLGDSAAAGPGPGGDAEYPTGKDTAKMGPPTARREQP
Chain of RPS6KB1 (human) (P23443 whole entry, looked up): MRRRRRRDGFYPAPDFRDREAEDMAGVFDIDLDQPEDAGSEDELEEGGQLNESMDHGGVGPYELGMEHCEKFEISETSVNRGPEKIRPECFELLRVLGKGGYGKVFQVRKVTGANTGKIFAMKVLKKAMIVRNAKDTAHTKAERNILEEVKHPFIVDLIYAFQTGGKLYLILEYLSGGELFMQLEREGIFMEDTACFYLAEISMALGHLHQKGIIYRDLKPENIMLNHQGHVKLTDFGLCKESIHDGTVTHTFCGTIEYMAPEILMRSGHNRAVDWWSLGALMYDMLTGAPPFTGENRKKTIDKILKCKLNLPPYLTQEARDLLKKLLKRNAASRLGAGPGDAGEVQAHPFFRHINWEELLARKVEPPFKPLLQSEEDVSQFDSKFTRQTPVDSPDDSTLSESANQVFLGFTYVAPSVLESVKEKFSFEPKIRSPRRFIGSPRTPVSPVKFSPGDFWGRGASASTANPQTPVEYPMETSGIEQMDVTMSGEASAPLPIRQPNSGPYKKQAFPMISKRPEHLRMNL
Chain of TEC (human) (P42680 whole entry, looked up): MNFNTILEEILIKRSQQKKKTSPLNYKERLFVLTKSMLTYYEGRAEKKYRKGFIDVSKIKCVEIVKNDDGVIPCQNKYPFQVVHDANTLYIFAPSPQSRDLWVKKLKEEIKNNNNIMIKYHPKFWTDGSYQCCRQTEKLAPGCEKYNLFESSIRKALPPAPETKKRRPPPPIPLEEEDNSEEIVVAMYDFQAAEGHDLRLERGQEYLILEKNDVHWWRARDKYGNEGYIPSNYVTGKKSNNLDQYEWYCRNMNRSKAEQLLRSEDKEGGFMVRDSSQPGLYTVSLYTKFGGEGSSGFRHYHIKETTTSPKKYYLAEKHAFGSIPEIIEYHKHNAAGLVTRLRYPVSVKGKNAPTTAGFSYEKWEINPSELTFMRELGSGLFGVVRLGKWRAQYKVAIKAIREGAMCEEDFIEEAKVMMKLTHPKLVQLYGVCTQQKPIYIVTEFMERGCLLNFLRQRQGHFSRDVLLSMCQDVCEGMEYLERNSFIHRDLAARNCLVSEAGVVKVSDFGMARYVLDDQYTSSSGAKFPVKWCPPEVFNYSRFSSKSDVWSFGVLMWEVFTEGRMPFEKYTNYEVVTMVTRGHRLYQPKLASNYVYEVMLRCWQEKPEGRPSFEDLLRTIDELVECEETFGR
Chain of OXSR1 (human) (O95747 whole entry, looked up): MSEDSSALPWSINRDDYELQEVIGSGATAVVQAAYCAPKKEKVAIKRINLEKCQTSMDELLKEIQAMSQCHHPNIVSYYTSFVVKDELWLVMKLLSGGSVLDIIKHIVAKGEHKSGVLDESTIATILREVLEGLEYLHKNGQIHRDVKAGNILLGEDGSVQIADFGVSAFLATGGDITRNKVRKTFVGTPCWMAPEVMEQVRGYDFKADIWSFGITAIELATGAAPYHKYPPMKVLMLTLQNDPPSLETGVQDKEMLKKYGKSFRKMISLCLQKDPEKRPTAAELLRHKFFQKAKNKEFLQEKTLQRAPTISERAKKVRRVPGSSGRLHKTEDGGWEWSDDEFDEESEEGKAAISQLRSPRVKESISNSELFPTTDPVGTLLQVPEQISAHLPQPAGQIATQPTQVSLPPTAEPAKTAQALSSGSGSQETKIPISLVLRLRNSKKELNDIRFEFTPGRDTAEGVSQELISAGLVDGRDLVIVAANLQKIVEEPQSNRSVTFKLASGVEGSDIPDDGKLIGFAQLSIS

What does the source list for `CN(C)C/C=C/C(=O)Nc1cccc(C(=O)Nc2ccc(Nc3nccc(/C(C#N)=C4\Nc5ccccc5S4)n3)cc2)c1`?
kinase still bound, per cent of control [1]: 100%; kinase still bound, per cent of control [2]: 87%; kinase still bound, per cent of control [3]: 100%; kinase still bound, per cent of control [4]: 90%; kinase still bound, per cent of control [5]: 68%; kinase still bound, per cent of control [6]: 100%; kinase still bound, per cent of control [7]: 100%; kinase still bound, per cent of control [8]: 87%; kinase still bound, per cent of control [9]: 74%; kinase still bound, per cent of control [10]: 100%; kinase still bound, per cent of control [11]: 100%; kinase still bound, per cent of control [12]: 69%; kinase still bound, per cent of control [13]: 85%; kinase still bound, per cent of control [14]: 77%; kinase still bound, per cent of control [15]: 82%; kinase still bound, per cent of control [16]: 100%; kinase still bound, per cent of control [17]: 100%; kinase still bound, per cent of control [18]: 70%; kinase still bound, per cent of control [19]: 85%; kinase still bound, per cent of control [20]: 100%; kinase still bound, per cent of control [21]: 95%; kinase still bound, per cent of control [22]: 97%; kinase still bound, per cent of control [23]: 96%; kinase still bound, per cent of control [24]: 100%; kinase still bound, per cent of control [25]: 59%; kinase still bound, per cent of control [26]: 100%; kinase still bound, per cent of control [27]: 48%; kinase still bound, per cent of control [28]: 100%; kinase still bound, per cent of control [29]: 100%; kinase still bound, per cent of control [30]: 47%; kinase still bound, per cent of control [31]: 100%; kinase still bound, per cent of control [32]: 100%; kinase still bound, per cent of control [33]: 0.05%; kinase still bound, per cent of control [34]: 100%; kinase still bound, per cent of control [35]: 1.2%; kinase still bound, per cent of control [36]: 58%; kinase still bound, per cent of control [37]: 100%; kinase still bound, per cent of control [38]: 100%; kinase still bound, per cent of control [39]: 51%; kinase still bound, per cent of control [40]: 100%; kinase still bound, per cent of control [41]: 100%; kinase still bound, per cent of control [42]: 81%; kinase still bound, per cent of control [43]: 100%

From the kinase profiling compilation of Christmann-Franck et al. (2016)
